biological target: human MER (528-end) (Homo sapiens (Human), UniProt Q12866); test: HTRF Kinase Activity Biochemical Assay (KinEASE-TK); details: 10 uM ATP
Method: For the SAR (structure-activity relationship) and compound screening, HTRF (Homogeneous Time Resolved Fluorescence) kinase activity assay was employed for all MER, AXL and TYRO3 kinases using Cisbio HTRF® KinEASE™-TK kit (Cisbio, USA). The kit includes biotin-labeled TK substrate, streptavidin-XL665, Eu3+-cryptate-labeled TK antibody and HTRF® Detection buffer. There are two main steps in the kinase assay: kinase reaction and detection of phosphorylated substrate. The reaction was carried out in white low volume 384-well plate (Corning, USA) with 25 nL compound in dimethyl sulfoxide in each well. […] Then the reaction was stopped after 1 hour incubation at room temperature by adding 5 uL of HTRF® Detection buffer which also contains 0.375 nM Eu3+-cryptate-labeled TK antibody and 0.062 uM streptavidin-XL665(SA-XL665) to allow for detection of the phosphorylated peptide product. After 1 h incubation at room temperature, the fluorescence intensity was measured with Envision™ plate reader (PerkinElmer, USA). Upon excitation at 340 nm by UV, the energy from Eu3+ donor of the antibody is transferred to the FRET acceptor XL665, and […] emits light at 665 nm. The level of kinase activity was quantified by the HTRF ratio that calculated from the intensity of emission at 665 nm and emission at 620 nm (fluorescence intensity @ 665 nm/fluorescence intensity @ 620 nm×10,000). The recombinant protein of human MER (528-end) was purchased from Carnabio, Japan. The recombinant human AXL (473-end) and TYRO3 (455-end) were purchased from SignalChem, Canada.

human MER (528-end), sequence (Q12866 528-999 limits assumed): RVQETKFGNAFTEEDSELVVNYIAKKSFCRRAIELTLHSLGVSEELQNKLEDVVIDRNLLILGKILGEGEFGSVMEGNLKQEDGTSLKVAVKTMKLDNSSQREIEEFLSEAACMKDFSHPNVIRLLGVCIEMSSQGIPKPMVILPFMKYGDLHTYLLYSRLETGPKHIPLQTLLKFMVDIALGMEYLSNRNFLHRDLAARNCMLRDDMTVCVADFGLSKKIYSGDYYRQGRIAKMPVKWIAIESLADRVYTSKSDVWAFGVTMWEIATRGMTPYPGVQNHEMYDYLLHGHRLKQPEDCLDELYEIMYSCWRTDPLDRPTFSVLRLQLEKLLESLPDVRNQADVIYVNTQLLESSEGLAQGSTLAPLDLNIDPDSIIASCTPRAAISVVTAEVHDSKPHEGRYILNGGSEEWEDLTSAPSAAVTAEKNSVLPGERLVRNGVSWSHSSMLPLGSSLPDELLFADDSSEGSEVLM

SMILES | IC50 [nM]
Cn1cc(-c2cnc(N)c(C(=O)N[C@@H]3CCN(C(=O)Oc4ccc(S(C)(=O)=O)cc4)C3)c2)cn1 [Example 77, 4-(methylsulfonyl)phenyl (R)-3-(2-amino-5-(1-methyl-1H-pyrazol-4-yl)nicotinamido)pyrrolidine-1-carboxylate] | > 1000
CN(C)Cc1ccccc1OC(=O)N1CC[C@@H](NC(=O)c2cc(-c3cnn(C)c3)cnc2N)C1 [Example 78, 2-((dimethylamino)methyl)phenyl (R)-3-(2-amino-5-(1-methyl-1H-pyrazol-4-yl)nicotinamido)pyrrolidine-1-carboxylate] | > 1000
Cn1cc(-c2cnc(N)c(C(=O)N[C@@H]3CCN(C(=O)OCc4ccccc4)C3)c2)cn1 [Example 80, benzyl (R)-3-(2-amino-5-(1-methyl-1H-pyrazol-4-yl)nicotinamido)pyrrolidine-1-carboxylate] | > 1000
Nc1ncc(-c2ccc(CO)cc2)cc1C(=O)N[C@@H]1CCN(C(=O)Oc2cccc(-c3ccccc3)c2)C1 [Example 81, [1,1′-biphenyl]-3-yl (R)-3-(2-amino-5-(4-(hydroxymethyl)phenyl)nicotinamido)pyrrolidine-1-carboxylate] | 100 to 1000
Nc1ncc(-c2ccc(C(=O)N3CCOCC3)cc2)cc1C(=O)N[C@@H]1CCN(C(=O)Oc2cccc(-c3ccccc3)c2)C1 [Example 83, [1,1′-biphenyl]-3-yl (R)-3-(2-amino-5-(4-(morpholine-4-carbonyl)phenyl)nicotinamido)pyrrolidine-1-carboxylate] | 100 to 1000
Nc1ncc(-c2ccc(F)c(F)c2)cc1C(=O)N[C@@H]1CCN(C(=O)Oc2cccc(-c3ccccc3)c2)C1 [Example 84, [1,1′-biphenyl]-3-yl (R)-3-(2-amino-5-(3,4-difluorophenyl)nicotinamido)pyrrolidine-1-carboxylate] | > 1000
Nc1ncc(Br)cc1C(=O)N[C@@H]1CCN(C(=O)Oc2cccc(-c3ccccc3)c2)C1 [Example 85, [1,1′-biphenyl]-3-yl (R)-3-(2-amino-5-bromonicotinamido)pyrrolidine-1-carboxylate] | > 1000
Cc1cc(OC(=O)N2CC[C@@H](NC(=O)c3cc(-c4cnn(C)c4)cnc3N)C2)ccc1Cl [Example 86, 4-chloro-3-methylphenyl (R)-3-(2-amino-5-(1-methyl-1H-pyrazol-4-yl)nicotinamido)pyrrolidine-1-carboxylate] | > 1000
Cn1cc(-c2cnc(N)c(C(=O)N[C@@H]3CCN(C(=O)Oc4cccc(C#N)c4)C3)c2)cn1 [Example 87, 3-cyanophenyl (R)-3-(2-amino-5-(1-methyl-1H-pyrazol-4-yl)nicotinamido)pyrrolidine-1-carboxylate] | > 1000
Cn1cc(-c2cnc(N)c(C(=O)N[C@@H]3CCN(C(=O)Oc4ccc(Cl)c(Cl)c4)C3)c2)cn1 [Example 88, 3,4-dichlorophenyl (R)-3-(2-amino-5-(1-methyl-1H-pyrazol-4-yl)nicotinamido)pyrrolidine-1-carboxylate] | > 1000
Cn1cc(-c2cnc(N)c(C(=O)N[C@@H]3CCN(C(=O)Oc4ccc(N)c(Cl)c4)C3)c2)cn1 [Example 89, 4-amino-3-chlorophenyl (R)-3-(2-amino-5-(1-methyl-1H-pyrazol-4-yl)nicotinamido)pyrrolidine-1-carboxylate] | > 1000
Cn1cc(-c2cnc(N)c(C(=O)N[C@@H]3CCN(C(=O)Oc4cc(F)cc(F)c4)C3)c2)cn1 [Example 90, 3,5-difluorophenyl (R)-3-(2-amino-5-(1-methyl-1H-pyrazol-4-yl)nicotinamido)pyrrolidine-1-carboxylate] | > 1000
Cc1cc(C)cc(OC(=O)N2CC[C@@H](NC(=O)c3cc(-c4cnn(C)c4)cnc3N)C2)c1 [Example 91, 3,5-dimethylphenyl (R)-3-(2-amino-5-(1-methyl-1H-pyrazol-4-yl)nicotinamido)pyrrolidine-1-carboxylate] | > 1000
COC(=O)c1ccccc1OC(=O)N1CC[C@@H](NC(=O)c2cc(-c3cnn(C)c3)cnc2N)C1 [Example 92, 2-(methoxycarbonyl)phenyl (R)-3-(2-amino-5-(1-methyl-1H-pyrazol-4-yl)nicotinamido)pyrrolidine-1-carboxylate] | > 1000
CN1CCC(n2cc(-c3cnc(N)c(C(=O)N[C@@H]4CCN(C(=O)Oc5cccc(-c6ccccc6)c5)C4)c3)cn2)CC1 [Example 96, [1,1′-biphenyl]-3-yl (R)-3-(2-amino-5-(1-(1-methylpiperidin-4-yl)-1H-pyrazol-4-yl)nicotinamido)pyrrolidine-1-carboxylate] | 100 to 1000

Results, then the compound that gave them:

IC50 [nM] | SMILES
100 to 1000 | CCc1ccc(OC(=O)N2CC[C@@H](NC(=O)c3cc(-c4cnn(C)c4)cnc3N)C2)cc1 [Example 93, 4-ethylphenyl (R)-3-(2-amino-5-(1-methyl-1H-pyrazol-4-yl)nicotinamido)pyrrolidine-1-carboxylate]
> 1000 | Cc1ccc(OC(=O)N2CC[C@@H](NC(=O)c3cc(-c4cnn(C)c4)cnc3N)C2)cc1C [Example 94, 3,4-dimethylphenyl (R)-3-(2-amino-5-(1-methyl-1H-pyrazol-4-yl)nicotinamido)pyrrolidine-1-carboxylate]
> 1000 | Cn1cc(-c2cnc(N)c(C(=O)N[C@@H]3CCN(C(=O)Oc4cc5ccccc5cc4O)C3)c2)cn1 [Example 97, 3-hydroxynaphthalen-2-yl (R)-3-(2-amino-5-(1-methyl-1H-pyrazol-4-yl)nicotinamido)pyrrolidine-1-carboxylate]
> 1000 | Cn1cc(-c2cnc(N)c(C(=O)N[C@@H]3CCN(C(=O)Oc4ccccc4O)C3)c2)cn1 [Example 98, 2-hydroxyphenyl (R)-3-(2-amino-5-(1-methyl-1H-pyrazol-4-yl)nicotinamido)pyrrolidine-1-carboxylate]
> 1000 | Cn1cc(-c2cnc(N)c(C(=O)N[C@@H]3CCN(C(=O)Oc4ccc(Cl)cc4N)C3)c2)cn1 [Example 99, 2-amino-4-chlorophenyl (R)-3-(2-amino-5-(1-methyl-1H-pyrazol-4-yl)nicotinamido)pyrrolidine-1-carboxylate]
> 1000 | Cn1cc(-c2cnc(N)c(C(=O)N[C@@H]3CCN(C(=O)Oc4cc([N+](=O)[O-])ccc4N)C3)c2)cn1 [Example 100, 2-amino-5-nitrophenyl (R)-3-(2-amino-5-(1-methyl-1H-pyrazol-4-yl)nicotinamido)pyrrolidine-1-carboxylate]
> 1000 | Cn1cc(-c2cnc(N)c(C(=O)N[C@@H]3CCN(C(=O)Oc4cccc(O)c4)C3)c2)cn1 [Example 101, 3-hydroxyphenyl (R)-3-(2-amino-5-(1-methyl-1H-pyrazol-4-yl)nicotinamido)pyrrolidine-1-carboxylate]
100 to 1000 | Cn1cc(-c2cnc(N)c(C(=O)N[C@@H]3CCN(C(=O)Oc4ccc(Oc5ccccc5)cc4)C3)c2)cn1 [Example 102, 4-phenoxyphenyl (R)-3-(2-amino-5-(1-methyl-1H-pyrazol-4-yl)nicotinamido)pyrrolidine-1-carboxylate]
100 to 1000 | Cn1cc(-c2cnc(N)c(C(=O)N[C@@H]3CCN(C(=O)Oc4ccc5ccccc5c4)C3)c2)cn1 [Example 103, naphthalen-2-yl (R)-3-(2-amino-5-(1-methyl-1H-pyrazol-4-yl)nicotinamido)pyrrolidine-1-carboxylate]
100 to 1000 | Cn1cc(-c2cnc(N)c(C(=O)N[C@@H]3CCN(C(=O)Oc4ccc5cc(O)ccc5c4)C3)c2)cn1 [Example 104, 6-hydroxynaphthalen-2-yl (R)-3-(2-amino-5-(1-methyl-1H-pyrazol-4-yl)nicotinamido)pyrrolidine-1-carboxylate]
> 1000 | Cn1cc(-c2cnc(N)c(C(=O)N[C@@H]3CCN(C(=O)O[C@H]4C[C@H]5CC[C@@H]4C5)C3)c2)cn1 [Example 105, (1R,2S,4S)-bicyclo[2.2.1]heptan-2-yl (R)-3-(2-amino-5-(1-methyl-1H-pyrazol-4-yl)nicotinamido)pyrrolidine-1-carboxylate]
> 1000 | Cn1cc(-c2cnc(N)c(C(=O)N[C@@H]3CCN(C(=O)OC4CCCC4)C3)c2)cn1 [Example 106, cyclopentyl (R)-3-(2-amino-5-(1-methyl-1H-pyrazol-4-yl)nicotinamido)pyrrolidine-1-carboxylate]
> 1000 | Cn1cc(-c2cnc(N)c(C(=O)N[C@@H]3CCN(C(=O)OC4CCCCCC4)C3)c2)cn1 [Example 107, cycloheptyl (R)-3-(2-amino-5-(1-methyl-1H-pyrazol-4-yl)nicotinamido)pyrrolidine-1-carboxylate]
> 1000 | Cn1cc(-c2cnc(N)c(C(=O)N[C@@H]3CCN(C(=O)O[C@H]4C[C@@H]5CC[C@H]4C5)C3)c2)cn1 [Example 109, (1S,2S,4R)-bicyclo[2.2.1]heptan-2-yl (R)-3-(2-amino-5-(1-methyl-1H-pyrazol-4-yl)nicotinamido)pyrrolidine-1-carboxylate]
100 to 1000 | Cn1cc(-c2cnc(N)c(C(=O)N[C@@H]3CCN(C(=O)Oc4cccc(Oc5ccccc5)c4)C3)c2)cn1 [Example 110, 3-phenoxyphenyl (R)-3-(2-amino-5-(1-methyl-1H-pyrazol-4-yl)nicotinamido)pyrrolidine-1-carboxylate]

From US12378224B2 (Dong-A Socio Holdings Co., Ltd., priority 2016, dated 2025)
